We go through 1 compound from publication PMC3856890 (Nature methods, 2013).

This test deals with T1, Pdp (pyrimidine-nucleoside phosphorylase) (Mycoplasmoides genitalium, UniProt P47297).
T1 sequence (P47297 1-421): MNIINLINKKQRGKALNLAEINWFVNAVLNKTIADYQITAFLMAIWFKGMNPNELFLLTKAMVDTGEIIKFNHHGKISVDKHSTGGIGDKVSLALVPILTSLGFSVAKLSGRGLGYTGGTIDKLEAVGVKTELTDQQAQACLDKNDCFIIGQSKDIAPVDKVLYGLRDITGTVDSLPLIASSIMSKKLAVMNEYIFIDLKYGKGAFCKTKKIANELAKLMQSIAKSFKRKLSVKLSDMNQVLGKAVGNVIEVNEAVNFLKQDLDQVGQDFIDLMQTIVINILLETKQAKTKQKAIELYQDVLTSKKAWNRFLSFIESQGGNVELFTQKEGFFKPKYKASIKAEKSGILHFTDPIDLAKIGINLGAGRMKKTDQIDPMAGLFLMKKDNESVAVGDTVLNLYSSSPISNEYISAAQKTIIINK
Put plainly: uracil production at […] nm after NaOH stop. The class given is biochemical. The following applies: 1.25-12.5 mM deoxyuridine; 10 mM phosphate; 10 mM Tris pH 7.3; 1 mM EDTA; 37 C.

For the compound `O=c1cc[nH]c(=O)[nH]1` [uracil], the “uracil production at 290 nm after NaOH stop” value was “We determined uracil production by A290”.
